The values below come from PubChem BioAssay (NCI).

SMILES strings stand for the structures. Where “and” joins values, the source holds several entries; their conditions need not be identical. Equal values may be shown once.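 A five-concentration, 48-hour dose response in 96-well plates underlies each endpoint, interpolated linearly between surrounding concentrations. The concentration for 50% growth inhibition is given as GI50. The concentration for full growth arrest is given as TGI.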

The first assay has as its system HL-60(TB) leukemia. Briefly: growth of human tumour cells (NCI), 48 h.
With `CC(=O)Oc1c(C)c(C)c2c(c1C)CCC(C)(CC(=O)OCCCCCCCCCCC[P+](c1ccccc1)(c1ccccc1)c1ccccc1)O2` (stereo unspecified), the GI50 is 0.228 µM and the TGI amounted to 0.926 µM.
`COc1cc(C2c3cc4c(cc3[C@@H](Nc3ccc5c(c3)OCO5)C3COC(=O)[C@H]23)OCO4)cc(OC)c1O` (stereo partly specified) gave a TGI of 0.977 µM.

In another assay the test system is A498 renal. Description: growth of human tumour cells (NCI), 48 h.
`N#C/C(=C1\SC(N=Nc2ccc(Cl)cc2)C(=O)N1c1ccccc1)c1nc2ccccc2[nH]1` (stereo unspecified) had a TGI of 58.4 µM.
The same measure, in the same setting: in the case of `O=C(NN1C(=O)CSC1c1cccc(F)c1)c1ccncc1` (stereo unspecified) it was above 100 µM; in that of `COc1cccc2c1OCC1Cc3ccccc3OC21` (stereo unspecified), above 100 µM.
Take `C=CCN1C(=O)/C(=C/c2ccc(C)cc2)N=C1SC1OC(COC(C)=O)C(OC(C)=O)C(OC(C)=O)C1OC(C)=O` (stereo unspecified): the GI50 is > 100 µM and 23.4 µM; the TGI was > 100 µM and 69.5 µM.
The compound `CC(C)C(N)C(=O)NC(CCC(=O)NCCCCC(N)C(=O)NCCCNc1ccc([N+](=O)[O-])c2[nH]c3ccccc3c(=O)c12)C(N)=O` (stereo unspecified) came in with a TGI above 100 µM.
The same measure, in the same setting: the figure for `Cc1cccc(/C(Br)=C2/OC(=O)c3ccccc32)c1` is above 100 µM; for `CC1(C)OC2COC3([C@@H]4OC(C)(C)O[C@@H]4CO)OC(C)(C)OC3C2O1` (stereo partly specified) it is above 100 µM.
Regarding `c1ccc2[nH]c(CNc3ccc(C4C[Se]N=N4)cc3)nc2c1` (stereo unspecified), the TGI was above 100 µM.
On the same count and under the same terms, in the case of `COc1cc(/C=C2\CCC(C)/C(=C\c3cc(OC)c(OC)c(OC)c3)C2=O)cc(OC)c1OC` (stereo unspecified) it was 6.06 µM.
The same measure, in the same setting: the figure for `C[C@H]1OC(=O)[C@@H]2N=NN(Cc3ccccc3)[C@H]12` is above 100 µM; for `C[C@]12CC[C@@H]3c4ccc(O)cc4CC[C@H]3[C@@H]1C/C(=C\c1ccc(C#N)cc1)C2=O` it is above 100 µM; for `O=[N+]([O-])/C(Cl)=C(\NCCN/C(C(Cl)=C(Cl)Cl)=C(/Cl)[N+](=O)[O-])C(Cl)=C(Cl)Cl` it is above 100 µM.
On the same count and under the same terms, the figure for `COc1ccc(/C=N/n2c(C)nc3c(sc(=S)n3-c3ccccc3)c2=O)cc1` is above 100 µM; for `CSc1nc2c(ncn2C2OC(CO)C(O)C(O)C2O)c(=O)[nH]1` (stereo unspecified) it is above 100 µM; for `Nc1ccccc1C(=O)C(Br)C(Br)c1ccc2c(c1)OCO2` (stereo unspecified) it is 60.7 µM.
`CCCCCCCCCCCC1CC(=O)NCCCN(C)CCCCN(C)CCCN1C` (stereo unspecified) came in with a TGI of 3.14 µM.
Take `CC(=O)Oc1c(C)c(C)c2c(c1C)CCC(C)(CC(=O)OCCCCCCCCCCC[P+](c1ccccc1)(c1ccccc1)c1ccccc1)O2` (stereo unspecified): the GI50 was 0.385 µM and the TGI amounted to 2 µM.
`COc1cc(C2c3cc4c(cc3[C@@H](Nc3ccc5c(c3)OCO5)C3COC(=O)[C@H]23)OCO4)cc(OC)c1O` (stereo partly specified) came in with a TGI of 1.84 µM.

The next assay deals with SF-295 CNS. Description: growth of human tumour cells (NCI), 48 h.
In turn, `N#C/C(=C1\SC(N=Nc2ccc(Cl)cc2)C(=O)N1c1ccccc1)c1nc2ccccc2[nH]1` (stereo unspecified) displayed a TGI of 58.7 µM.
The same measure, in the same setting: the figure for `CCOC(=O)c1c(SCCN2CCOCC2)n(-c2ccccc2)c(=S)n(-c2ccccc2)c1=O` is 61.2 µM.
Still for that read-out and setting: in the case of `O=C(NN1C(=O)CSC1c1cccc(F)c1)c1ccncc1` (stereo unspecified) it was above 100 µM.
Same read-out and setting: in the case of `COc1cccc2c1OCC1Cc3ccccc3OC21` (stereo unspecified) it was above 100 µM.
The compound `C=CCN1C(=O)/C(=C/c2ccc(C)cc2)N=C1SC1OC(COC(C)=O)C(OC(C)=O)C(OC(C)=O)C1OC(C)=O` (stereo unspecified) returned a TGI above 100 µM.
With `CC(C)C(N)C(=O)NC(CCC(=O)NCCCCC(N)C(=O)NCCCNc1ccc([N+](=O)[O-])c2[nH]c3ccccc3c(=O)c12)C(N)=O` (stereo unspecified), the TGI was above 100 µM.
Still for that read-out and setting: in the case of `Cc1cccc(/C(Br)=C2/OC(=O)c3ccccc32)c1` it was above 100 µM; in that of `CC#CC(O)(C(=O)OC1CC(C)N(C)C(C)(C)C1)C1CCCC1` (stereo unspecified), above 100 µM.
With `CC1(C)OC2COC3([C@@H]4OC(C)(C)O[C@@H]4CO)OC(C)(C)OC3C2O1` (stereo partly specified), the TGI was above 100 µM.
Same read-out and setting: in the case of `c1ccc2[nH]c(CNc3ccc(C4C[Se]N=N4)cc3)nc2c1` (stereo unspecified) it was 92.3 µM; in that of `C[C@H]1OC(=O)[C@@H]2N=NN(Cc3ccccc3)[C@H]12`, above 100 µM; in that of `Cc1ccc2oc(=O)c(-c3ccccc3)nc2c1`, above 100 µM.
The same measure, in the same setting: the figure for `O=C(O)/C=C\C(=O)Nc1ccc(S(=O)(=O)c2ccc(NC(=O)/C=C\C(=O)O)cc2)cc1` is above 100 µM; for `C[C@]12CC[C@@H]3c4ccc(O)cc4CC[C@H]3[C@@H]1C/C(=C\c1ccc(C#N)cc1)C2=O` it is above 100 µM; for `O=[N+]([O-])/C(Cl)=C(\NCCN/C(C(Cl)=C(Cl)Cl)=C(/Cl)[N+](=O)[O-])C(Cl)=C(Cl)Cl` it is above 100 µM.
Same read-out and setting: the figure for `S=C1NC2=C(CSC/C2=C\c2ccccc2)C(c2ccccc2)N1` (stereo unspecified) is 89.1 µM.
`COc1ccc(/C=N/n2c(C)nc3c(sc(=S)n3-c3ccccc3)c2=O)cc1` gave a TGI above 100 µM.
Same read-out and setting: the figure for `CSc1nc2c(ncn2C2OC(CO)C(O)C(O)C2O)c(=O)[nH]1` (stereo unspecified) is above 100 µM; for `Nc1ccccc1C(=O)C(Br)C(Br)c1ccc2c(c1)OCO2` (stereo unspecified) it is above 100 µM; for `CCCCCCCCCCCC1CC(=O)NCCCN(C)CCCCN(C)CCCN1C` (stereo unspecified) it is 3.07 µM.
As to `CC(=O)Oc1c(C)c(C)c2c(c1C)CCC(C)(CC(=O)OCCCCCCCCCCC[P+](c1ccccc1)(c1ccccc1)c1ccccc1)O2` (stereo unspecified), the GI50 is 0.264 µM and the TGI is 1.09 µM.
Consider `COc1cc(C2c3cc4c(cc3[C@@H](Nc3ccc5c(c3)OCO5)C3COC(=O)[C@H]23)OCO4)cc(OC)c1O` (stereo partly specified), for which the TGI came out at 5.3 µM.
